{"source": "patent US9097693B2", "about": "“Simple analysis method of drugs” (priority 2005, dated 2015)", "conditions": "for nicotine content in hair: smoker, three 6 cm hairs (about 0.9 mg)", "protocol": "Three 60 mm hairs (about 0.9 mg) were put in a stainless injection needle (inner diameter of 0.5 mm, outer diameter of 0.7 mm, the tip conical part length of 2 mm, the container part length of 80 mm, and one aperture of 0.4 mm in diameter in the lateral side of the end of the container). A syringe was fixed to the needle and methanol, dichloromethane and methanol each one ml were run in this order through the needle to wash the hairs.\nThen, the needle was inserted into an injector (at 300° C.) of a gas chromatograph (Agilent, HP-6890) and held for 15 seconds. Then, dichloromethane (25 μL) was injected for desorption and a carrier gas was run. The chromatography was conducted under the following conditions. • Column diameter: 0.25 mm • Column length: 25 m • Column stationary phase: dimethylpolysiloxane (HR-1) • Column temperature: 50° C. to 300° C. (temperature rising: 5° C./min) • Carrier gas: helium • Carrier gas flow: 0.9 ml/min • Split ratio: 25:1 • Detector: MS (Agilent, HP-5972)\nThree 6 cm hairs (about 0.9 mg) were used for the analysis.", "note": "Where two headings read alike, the source gives them in different places."}
{"smiles": "CN1CCCC1c1cccnc1", "note": "(stereo not shown) [nicotine]", "values": [{"measurement": "nicotine detection in hair", "setting": "hair of smoker, three 60 mm hairs (about 0.9 mg), GC-MS", "result": "clearly detected"}, {"measurement": "nicotine content in hair", "setting": "10 cigarettes per day, tobacco brand B (nominal nicotine 0.7 mg)", "result": 11.5, "unit": "ng/mg"}, {"measurement": "nicotine content in hair", "setting": "15 cigarettes per day, tobacco brand E (nominal nicotine 0.8 mg)", "result": 8.2, "unit": "ng/mg"}, {"measurement": "nicotine content in hair", "setting": "15 cigarettes per day, tobacco brand F (nominal nicotine 0.1 mg)", "result": 13.0, "unit": "ng/mg"}, {"measurement": "nicotine content in hair", "setting": "20 cigarettes per day, tobacco brand A (nominal nicotine 1.2 mg)", "result": 12.1, "unit": "ng/mg"}, {"measurement": "nicotine content in hair", "setting": "20 cigarettes per day, tobacco brand D (nominal nicotine 0.1 mg)", "result": 30.5, "unit": "ng/mg"}, {"measurement": "nicotine content in hair", "setting": "30 cigarettes per day, tobacco brand C (nominal nicotine 0.4 mg)", "result": 55.3, "unit": "ng/mg"}]}
